# Experimental data as given in patent publication US4607123A, “Water soluble 3,5-diacetamido-2,4,6-triiodobenzoic acid derivatives” (Dr. Franz Kohler Chemie GmbH, priority 1984, dated 1986).
# Experiments:
# water solubility = format: physicochemical; settings: for solubility (in words): in water; for solubility: water
# Text: The configuration of the α-amino acid moiety may be arbitrary. The type of amino acid residue influences to a degree the solubility of the compound of the invention in water. For example, […]
# [1] = viscosity of aqueous preparations (Table 1); format: physicochemical
# Text: The derivatives of compounds (I) of the invention which show a good solubility in water generally show viscosity values which, as can be expected, are dependent from the number and position of the hydroxy groups, as well as from the configuration of the amino acid residue. Representative compounds of the invention are shown in the Table 1, with their viscosity values.
# Viscosity data in dependency from the type of amino acid and
# the concentration of the preparation.
# [2] = heat stability of a 67,9% aq. solution at different temperatures and times (Table 2); format: physicochemical
# Text: Behaviour of a 67,9% aq. solution of (II) at different temperatures
# mouse = test: LD50 in mouse, i.v. (Table 3); format: in vivo
# Experimental: (§1) LD50 in mouse, i.v. (14 days after application) of solution
# (§2) with a content of 300 mg J/ml.
# [3] = LD50 in mouse, i.v. (Table 3); format: in vivo; settings: in vivo, iv, 14 days after application, solution with 300 mg J/ml
# Experimental: as §1, §2
compound,measurement,setting,value
"CC(=O)Nc1c(I)c(NC(C)=O)c(I)c(C(=O)NC(CC(=O)N(C)C[C@H](O)[C@@H](O)[C@H](O)[C@H](O)CO)C(=O)N(C)C[C@H](O)[C@@H](O)[C@H](O)[C@H](O)CO)c1I (mixture of isomers) [X, N,N-[(3,5-diacetamido-2,4,6-triiodobenzoyl)-DL-aspartic acid]-bis-N-methyl glucamide]",solubility (in words),water solubility,superior in respect to solubility
same,solubility,water solubility; very soluble,> 1000 mg/mL
same,Viscosity,"[1]; 20° C., 200 mg J/ml",10.65 cP
same,Viscosity,"[1]; 20° C., 250 mg J/ml",25.38 cP
same,Viscosity,"[1]; 37° C., 200 mg J/ml",5.84 cP
same,Viscosity,"[1]; 37° C., 250 mg J/ml",12.23 cP
"CC(=O)Nc1c(I)c(NC(C)=O)c(I)c(C(=O)N(C)CC(=O)N(C)C[C@H](O)[C@@H](O)[C@H](O)[C@H](O)CO)c1I [II, N,N-[(3,5-diacetamido-2,4,6-triiodobenzoyl)-sarcosine]-N-methyl glucamide]",solubility (in words),water solubility,superior in respect to solubility
same,solubility,water solubility; very soluble,> 1000 mg/mL
same,Color,"[2]; 30 min, 110 °C.",colorless
same,Iodide,"[2]; 30 min, 110 °C.",2.63 mg J/100 ml
same,pH,"[2]; 30 min, 110 °C.",7.85
same,Color,"[2]; 30 min, 120 °C.",colorless
same,Iodide,"[2]; 30 min, 120 °C.",3.73 mg J/100 ml
same,pH,"[2]; 30 min, 120 °C.",7.80
same,Color,"[2]; 60 min, 110 °C.",colorless
same,Iodide,"[2]; 60 min, 110 °C.",3.72 mg J/100 ml
same,pH,"[2]; 60 min, 110 °C.",7.75
same,Color,[2]; base solution,colorless
same,Iodide,[2]; base solution,1.78 mg J/100 ml
same,pH,[2]; base solution,7.85
same,toxicity (in words),mouse; in vivo,low toxicity
same,LD50 at 336 h,[3],36000 mg/kg
same,Viscosity,"[1]; 20° C., 100 mg J/ml",2.16 cP
same,Viscosity,"[1]; 20° C., 150 mg J/ml",3.50 cP
same,Viscosity,"[1]; 20° C., 200 mg J/ml",5.74 cP
same,Viscosity,"[1]; 20° C., 250 mg J/ml",10.84 cP
same,Viscosity,"[1]; 20° C., 300 mg J/ml",18.88 cP
same,Viscosity,"[1]; 37° C., 100 mg J/ml",1.48 cP
same,Viscosity,"[1]; 37° C., 150 mg J/ml",2.22 cP
same,Viscosity,"[1]; 37° C., 200 mg J/ml",3.32 cP
same,Viscosity,"[1]; 37° C., 250 mg J/ml",6.20 cP
same,Viscosity,"[1]; 37° C., 300 mg J/ml",9.22 cP
"CC(=O)Nc1c(I)c(NC(C)=O)c(I)c(C(=O)N[C@@H](C)C(=O)N(C)C[C@H](O)[C@@H](O)[C@H](O)[C@H](O)CO)c1I [III, N,N-[(3,5-diacetamido-2,4,6-triiodobenzoyl)-L-alanine]-N-methyl glucamide]",solubility,water solubility; soluble,≤ 500 mg/mL
"CC(=O)Nc1c(I)c(NC(C)=O)c(I)c(C(=O)NCCC(=O)N(C)C[C@H](O)[C@@H](O)[C@H](O)[C@H](O)CO)c1I [IV, N,N-[(3,5-diacetamido-2,4,6-triiodobenzoyl)-β-alanine]-N-methyl glucamide]",solubility,water solubility; moderately soluble,≤ 200 mg/mL
"CC(=O)Nc1c(I)c(NC(C)=O)c(I)c(C(=O)N[C@@H](CC(=O)N(C)C[C@H](O)[C@@H](O)[C@H](O)[C@H](O)CO)C(=O)N(C)C[C@H](O)[C@@H](O)[C@H](O)[C@H](O)CO)c1I [IX, N,N-[(3,5-diacetamido-2,4,6-triiodobenzoyl)-L-aspartic acid]-bis-N-methyl glucamide]",solubility (in words),water solubility,superior in respect to solubility
same,solubility,water solubility; very soluble,> 1000 mg/mL
same,Viscosity,"[1]; 20° C., 100 mg J/ml",2.90 cP
same,Viscosity,"[1]; 20° C., 150 mg J/ml",5.15 cP
same,Viscosity,"[1]; 20° C., 200 mg J/ml",11.14 cP
same,Viscosity,"[1]; 20° C., 250 mg J/ml",33.58 cP
same,Viscosity,"[1]; 20° C., 300 mg J/ml",88.85 cP
same,Viscosity,"[1]; 37° C., 100 mg J/ml",1.84 cP
same,Viscosity,"[1]; 37° C., 150 mg J/ml",3.04 cP
same,Viscosity,"[1]; 37° C., 200 mg J/ml",6.06 cP
same,Viscosity,"[1]; 37° C., 250 mg J/ml",15.96 cP
same,Viscosity,"[1]; 37° C., 300 mg J/ml",35.41 cP
"CC(=O)Nc1c(I)c(NC(C)=O)c(I)c(C(=O)NCCCC(=O)N(C)C[C@H](O)[C@@H](O)[C@H](O)[C@H](O)CO)c1I [V, N,N-[(3,5-diacetamido-2,4,6-triiodobenzoyl)-γ-aminobutyric acid]-N-methyl glucamide]",solubility,water solubility; moderately soluble,≤ 200 mg/mL
"CC(=O)Nc1c(I)c(NC(C)=O)c(I)c(C(=O)N[C@@H](CO)C(=O)N(C)C[C@H](O)[C@@H](O)[C@H](O)[C@H](O)CO)c1I [VIII, N,N-[(3,5-diacetamido-2,4,6-triiodobenzoyl)-L-serine]-N-methyl glucamide]",solubility,water solubility; soluble,≤ 500 mg/mL
same,Viscosity,"[1]; 20° C., 100 mg J/ml",2.13 cP
same,Viscosity,"[1]; 20° C., 150 mg J/ml",3.11 cP
same,Viscosity,"[1]; 20° C., 200 mg J/ml",5.15 cP
same,Viscosity,"[1]; 20° C., 250 mg J/ml",9.43 cP
same,Viscosity,"[1]; 20° C., 300 mg J/ml",20.05 cP
same,Viscosity,"[1]; 37° C., 100 mg J/ml",1.84 cP
same,Viscosity,"[1]; 37° C., 150 mg J/ml",1.95 cP
same,Viscosity,"[1]; 37° C., 200 mg J/ml",3.04 cP
same,Viscosity,"[1]; 37° C., 250 mg J/ml",5.16 cP
same,Viscosity,"[1]; 37° C., 300 mg J/ml",9.71 cP
"CC(=O)Nc1c(I)c(NC(C)=O)c(I)c(C(=O)N[C@@H](CCC(=O)N(C)C[C@H](O)[C@@H](O)[C@H](O)[C@H](O)CO)C(=O)N(C)C[C@H](O)[C@@H](O)[C@H](O)[C@H](O)CO)c1I [XI, N,N-[(3,5-diacetamido-2,4,6-triiodobenzoyl)-L-glutamic acid]-bis-N-methyl glucamide]",solubility (in words),water solubility,superior in respect to solubility
same,solubility,water solubility; moderately soluble,≤ 200 mg/mL
same,solubility,water solubility; very soluble,> 1000 mg/mL
"CC(=O)Nc1c(I)c(NC(C)=O)c(I)c(C(=O)NCCCC[C@H](NC(=O)C(C)O)C(=O)N(C)C[C@H](O)[C@@H](O)[C@H](O)[C@H](O)CO)c1I (stereo partly drawn) [XII, N,N-[α-lactyl-ε-(3,5-diacetamido-2,4,6-triiodobenzoyl)-L-lysine]-N-methyl glucamide]",solubility,water solubility; moderately soluble,≤ 200 mg/mL
"CC(=O)Nc1c(I)c(NC(C)=O)c(I)c(C(=O)O)c1I [lysine-diatrizoate, reference compound]",LD50,"mouse; i.v., 14 days after application, solution with 300 mg J/ml, 20160 min",14000 to 18000 mg/kg
"CC(=O)Nc1c(I)c(NC(C)=O)c(I)c(C(=O)O)c1I [sodium-meglumine-diatrizoate, reference compound]",LD50 at 336 h,[3],12000 to 14000 mg/kg
